In patent publication US20240093259A1, “METHODS TO STABILIZE MAMMALIAN CELLS” (THE REGENTS OF THE UNIVERSITY OF CALIFORNIA, priority 2019, published 2024):

Assays:
Format in all cases: cell-based, Chinese hamster
[1] = system: CHO-K1 cells; experiment: Karyotype analysis after long-term culture (multi-color FISH chromosome painting); settings: wild-type CHO-K1 cultured under permanent supplementation, 60 passages
Description: Metaphase spreads were prepared as previously described. Samples were labeled with multi-color DNA fluorescence in situ hybridization (FISH) probes (12× CHamster mFISH probe kit, MetaSystems) for spectral karyotyping as previously described. For karyotypic analyses, the most abundant karyotype across samples was defined as the representative (“main”) karyotype, and deviations from this karyotype were scored as a numerical alteration (whole-chromosomal aneuploidy) and/or structural alteration (inter-chromosomal rearrangement, visible deletion). Structurally aberrant karyotypes (FIG. 8b) were defined as karyotypes showing at least one structural deviation from the representative karyotype. Since unrepaired DSBs can lead to chromosomal aberrations, as mentioned above, we prepared karyotype samples of wildtype and engineered cell lines to analyze chromosomal aberrations on the single cell level. For this, both ATM+ and ATM+ PRKDC+ cell lines were cultured in parallel to the parental wildtype clone for a total of 60 passages (approx. 120 doublings) after which cells were arrested in mitosis, metaphase chromosomal spreads were prepared and stained with chromosome-specific probes (“chromosome painting”) to detect structural and numerical variations. […]

[2] = system: CHO-K1 cells; experiment: EJ5-GFP double-strand break (DSB) reporter flow cytometry assay in CHO-K1
From the text: FIGS. 2A-2B show GFP-based double-strand break (DSB) reporter system. […] The spacer prevents the promoter from driving GFP expression. Step 2: Transient transfection with the DSB-inducing plasmid (B) induces two DSBs at the 5′ and 3′ ends of the spacer. Successfully transfected cells are identified through far-red fluorescence from miRFP670, fused to Cas9 (B). Step 3: Transfected cells that repair both DSBs properly keep the spacer in place and thus remain GFP-negative. Transfected cells that fail to repair both DSBs in time produce a large sequence loss, moving the GFP in proximity to the promoter, resulting in GFP expression. Thus, the fraction of GFP-positive cells among all transfected cells (far-red positive) serves as a read-out for the inefficiency of DSB repair. […]
The invention provides a tool to quantify double-strand break (DSB) repair in CHO. […] This reporter system comprises a GFP reading frame, separated from its promoter with a large (2 kb) spacer (FIG. 2A). […] Thus, this tool allows quantitative detection of DSB repair efficiency in living cells and is a powerful read-out for how restoration of individual DSB repair genes improves chromosome stability.
The EJ5-GFP reporter plasmid (addgene #44026) was linearized with XhoI and transfected into CHO-K1 and CHO-SEAP using electroporation (Neon, Thermo Fisher). […] Impaired DSB repair is detected by positive GFP expression. […]

[3] = system: CHO-SEAP cells; experiment: Long-term culture SEAP titer (SEAP reporter assay); settings: CHO-SEAP cells under constant 5 μM MTX supplementation, 48 passages
Description: Cells were cultured in triplicates on 6-well plates. All cells were treated with 5 μM methotrexate (MTX) (MilliporeSigma) for 2 weeks at the beginning of the study (P0-P7) after which only one triplicate per genotype was continued under MTX until the rest of the study. Cells were cultured for 48 passages in total, with 3 passages/week. […]. Protein titer was measured at P0, P7, and P48 using a SEAP reporter assay (Applied Biosystems, ThermoFisher).
To finally investigate whether DNA-repair optimization has beneficial effects on transgene expression, we grew CHO-SEAP WT and CHO-SEAP CMV::XRCC6 alongside in a long-term culture experiment, and compared SEAP titer at the beginning and the end. Prior to the start of the experiment, cells were cultured in 5 uM methotrexate (MTX) for 1 week to select for high SEAP expression, after which MTX was taken off the growth medium in half of the samples (FIG. 9c). MTX is a competitive inhibitor of dihydrofolate reductase, an essential metabolic enzyme, which is co-expressed with the transgenic SEAP locus (FIG. 9b).

SMILES | structural abnormalities in karyotype [1] | fraction of GFP+ cells (inefficiency of DSB repair) ([2]; CHO-K1 carrying GFP reporter, DSB-inducer transfection, ATM inhibitor 3 μM, FACS 24h after transfection) | GFP+ positive cells (compromised DSB repair) ([2]; CHO-K1 wildtype carrying EJ5-GFP, DSB-inducing plasmid, vs DMSO (Example 2, FIG. 5c)) | SEAP titer at end of long-term culture [3]
C[C@@H]1CN(CC(=O)Nc2ccc3c(c2)Cc2cccc(-c4cc(=O)cc(N5CCOCC5)o4)c2S3)C[C@H](C)O1 [KU-60019] | massive increase in structural abnormalities | increases the fraction of GFP+ cells | significant increase in GFP+ positive cells | –
CN(Cc1cnc2nc(N)nc(N)c2n1)c1ccc(C(=O)N[C@@H](CCC(=O)O)C(=O)O)cc1 [MTX, methotrexate] | – | – | – | no reduction in SEAP titer
